Data on 14 compounds can be found in US20090082372A1, “Arylmethylene Substituted N-Acyl-Beta-Amino Alcohols” (priority 2007, published 2009).

This experiment has as its target T1, human FSH receptor (Homo sapiens, UniProt P23945).
T1 construct: expressed in transfected cells; host or cells: CHO cells (hFSHR clone 16)
T1 sequence (P23945 18-695): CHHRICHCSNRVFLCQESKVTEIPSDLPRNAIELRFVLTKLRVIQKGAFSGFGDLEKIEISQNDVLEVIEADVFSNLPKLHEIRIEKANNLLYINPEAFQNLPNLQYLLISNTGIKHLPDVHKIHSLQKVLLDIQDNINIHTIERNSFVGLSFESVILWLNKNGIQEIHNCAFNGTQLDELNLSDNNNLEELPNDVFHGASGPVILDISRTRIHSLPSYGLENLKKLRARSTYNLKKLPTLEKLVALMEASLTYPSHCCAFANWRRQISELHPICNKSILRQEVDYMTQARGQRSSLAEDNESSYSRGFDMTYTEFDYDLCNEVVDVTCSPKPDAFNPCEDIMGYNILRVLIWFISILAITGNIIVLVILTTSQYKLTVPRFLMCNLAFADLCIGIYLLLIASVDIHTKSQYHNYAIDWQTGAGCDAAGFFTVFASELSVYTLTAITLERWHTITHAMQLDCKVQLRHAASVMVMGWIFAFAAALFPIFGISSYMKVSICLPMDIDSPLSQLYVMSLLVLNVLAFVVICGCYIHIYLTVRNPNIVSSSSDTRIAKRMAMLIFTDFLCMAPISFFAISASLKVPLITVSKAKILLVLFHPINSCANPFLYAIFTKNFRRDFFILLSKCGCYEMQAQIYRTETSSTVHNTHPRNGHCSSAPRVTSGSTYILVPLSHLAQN
Description: HTRF assay for measuring cAMP in cells (FSH antagonism). The following applies: hFSHR clone 16 cells (CHO cells stably transfected with the human FSH receptor); in the presence of 1e-9 mol/l hFSH; 37° C. for 2 h; read-out: IC50 (FSH-antagonistic effect in the HTRF assay). In kind it is cell-based. As to the method:
HTRF Assay for Measuring cAMP in Cells
The method is based on a competitive immunoassay between native cAMP, which has been produced by the cells, and cAMP which is labelled with XL665. The tracer binding was visualized by a monoclonal antibody, anti-cAMP labelled with cryptate [HTRF=homogeneous time-resolved fluorescence].
The specific signal is inversely proportional to the cAMP concentration of the samples employed. The 665 nm/620 nm fluorescence ratio was evaluated.
The following material was used: 96-well plates for the tissue culture, 96-well plates with black edge and black base (e.g. Fluotrac 600 from Greiner), 96-well plates for the substance dilutions of polypropylene and cAMP Femtomolar (4000 wells Kit, CIS Bio International #62AM1PEC).
The following reagents were used: BSA (bovine serum albumin) Fraction V protease-free, IBMX (3-isobutyl-1-methylxanthine), hFSH (human follicle stimulating hormone), Triton X-100 analytical grade, potassium fluoride analytical grade, G 418 (Geneticin) and Accutase.
Buffer 1 (washing and testing buffer) contained PBS, 1 mM CaCl2, 1 mM MgCl2, 0.2% glucose; 0.1% BSA, 1 mM IBMX. Buffer 2 (2× lysis buffer) contained 1% Triton X-100 in PBS (without CaCl2 and MgCl2). Buffer 3 (assay buffer) contained 50 mM potassium phosphate buffer (pH 7.0); 800 mM potassium fluoride; 0.2% BSA (always added fresh).
On day 1, the cells were seeded in 96-well plates (3×10^4 cells per well hFSHR clone 16 cells (CHO cells stably transfected with the human FSH receptor in 150 μl of medium).
The next day, test substance dilutions were made up. For this purpose, all the substances were diluted in ice-cold buffer 1 (with or without hFSH), and the substance dilutions were placed on ice until applied to the cells.
The cell supernatant was then aspirated off, and the cells were washed 2× with 200 μl of buffer 1. The cells were treated with 60 μl of the appropriate substance concentrations at 37° C. for 2 h. The cells were then lysed with 60 μl of buffer 2 (put onto the supernatant) (on a plate shaker at RT for 30 min).
The test conjugates (XL-665 and anti-cAMP cryptate) were diluted in buffer 3 in accordance with the manufacturers' information. The actual mixture for measurement was pipetted into a black 96-well plate (in each case 15 μl of the cell lysate diluted with 35 μl of buffer 1; firstly 25 μl of XL-665 conjugate were pipetted and, after 10 min, 25 μl of the anti-cAMP cryptate were added). This is followed by incubation at RT for 90 minutes. The measurement was carried out in a PheraStar (BMG).
Dose-effect curve (hFSH) for the human receptor: 1e-8, 3e-9, 1e-9, 3e-10, 1e-10, 3e-11, 1e-11, 3e-12 mol/l.
The test substances were employed in suitable dilutions in the absence (test for agonism) and in the presence of 1e-9 mol/l hFSH.
The values of the well ratio were averaged and then entered directly in SigmaPlot versus the concentrations. The maximum and minimum values were determined for each plate, and half the difference is to be regarded as IC50.
In general terms: TR-FRET usually uses a lanthanide donor and a delayed reading to cut background.
For the compound `COc1ccc2nc(-c3cc(OC)c(OC)c(OC)c3)cc(C(=O)N[C@@H](CO)Cc3ccc4ccccc4c3)c2c1` [Example 9, 6-Methoxy-2-(3,4,5-trimethoxy-phenyl)-quinoline-4-carboxylic acid ((R)-2-hydroxy-1-naphthalen-2-ylmethyl-ethyl)-amide], the IC50 was 8 µM.

For `CNC(=O)c1ccc(-c2cc3c(c(C(=O)NC(CO)Cc4c[nH]c5ncccc45)c2)OC(C)(C)C=C3)cc1Cl` (centres unmarked) [Example 5, 6-(3-Chloro-4-methylcarbamoyl-phenyl)-2,2-dimethyl-2H-chromene-8-carboxylic acid [2-hydroxy-1-(1H-pyrrolo[2,3-b]pyridin-3-ylmethyl)-ethyl]-amide], the IC50 is 0.065 µM. The same measure for `COc1ccc(-c2cc3c(c(C(=O)NC(CO)Cc4c[nH]c5cccnc45)c2)OCCCC3)cc1OC` (centres unmarked) [Example 26, 7-(3,4-Dimethoxy-phenyl)-2,3,4,5-tetrahydro-benzo[b]oxepine-9-carboxylic acid [1-hydroxymethyl-2-(1H-pyrrolo[3,2-b]pyridin-3-yl)-ethyl]-amide]: 1 µM.

In the case of `CNC(=O)c1ccc(-c2ccc(OC(C)C)c(C(=O)NC(CO)Cc3c[nH]c4cnccc34)c2)cc1Cl` (centres unmarked) [Example 39, 3′-Chloro-4-isopropoxy-biphenyl-3,4′-dicarboxylic acid 3-{[2-hydroxy-1-(1H-pyrrolo[2,3-c]pyridin-3-ylmethyl)-ethyl]-amide}4′-methylamide], the IC50 stood at 6.5 µM. Then `CNC(=O)c1ccc(C#Cc2ccc(OC(F)(F)F)c(C(=O)N[C@@H](CO)Cc3n[nH]c4cccc(F)c34)c2)cc1` (stereo in doubt) [Example 16, N-[2-hydroxy-1-(4-fluoro-1H-indazol-3-ylmethyl)-ethyl]-2-trifluoromethoxy-5-[(4-methylaminocarbonyl-phenyl)-ethynyl]-benzamide], with 9 µM; and `COc1ccc2nc(-c3cc(OC)c(OC)c(OC)c3)cc(C(=O)N[C@@H](CO)Cc3csc4ccccc34)c2c1` [Example 6, 6-Methoxy-2-(3,4,5-trimethoxy-phenyl)-quinoline-4-carboxylic acid ((R)-2-benzo[b]-thiophen-3-yl-1-hydroxy-methyl-ethyl)-amide], with 6 µM. The same measure for `COc1ccc2nc(-c3ccc(OC)c(F)c3)nc(C(=O)NC(CO)Cc3c[nH]c4cccnc34)c2c1` (centres unmarked) [Example 21, 2-(3-Fluoro-4-methoxy-phenyl)-6-methoxy-quinazoline-4-carboxylic acid [2-hydroxy-1-(1H-pyrrolo[3,2-b]pyridin-3-ylmethyl)-ethyl]-amide]: 5 µM. The same measure for `COc1ccccc1C#Cc1ccc(OC(C)C)c(C(=O)NC(CO)Cc2c[nH]c3ncccc23)c1` (centres unmarked) [Example 3, N-[1-Hydroxymethyl-2-(1H-pyrrolo[2,3-b]pyridin-3-yl)-ethyl]-2-isopropoxy-5-(2-methoxy-phenylethynyl)-benzamide]: 4 µM; for `COc1ccc2nc(-c3cc(OC)c(OC)c(OC)c3)cc(C(=O)NC(CO)Cc3ccc4ccccc4c3)c2c1` (centres unmarked) [Example 12, 6-Methoxy-2-(3,4,5-trimethoxy-phenyl)-quinoline-4-carboxylic acid (2-hydroxy-1-naphthalen-2-ylmethyl-ethyl)-amide]: 10 µM.

As to `CNC(=O)c1ccc(-c2ccc(OC(F)(F)F)c(C(=O)N[C@@H](CO)Cc3n[nH]c4c(F)cccc34)c2)cc1Cl` [Example 14, 3′-Chloro-4-trifluoromethoxy-biphenyl-3,4′-dicarboxylic acid 3-{[2-hydroxy-1-(7-fluoro-1H-indazol-3-ylmethyl)-ethyl]-amide}4′-methylamide], the concentration for half-maximal inhibition (IC50) was found to be 5 µM. Then `COc1ccccc1C#Cc1ccc(OC(C)C)c(C(=O)NC(CO)Cc2c[nH]c3cnccc23)c1` (centres unmarked) [Example 42, N-[2-Hydroxy-1-(1H-pyrrolo[2,3-c]pyridin-3-ylmethyl)-ethyl]-2-isopropoxy-5-(2-methoxy-phenylethynyl)-benzamide], with 5 µM; and `CNC(=O)c1cc(F)cc(-c2ccc(OC(C)C)c(C(=O)NC(CO)Cc3cc4ncccc4[nH]3)c2)c1` (centres unmarked) [Example 24, 5′-Fluoro-4-isopropoxy-biphenyl-3,3′-dicarboxylic acid 3-{[1-hydroxymethyl-2-(1H-pyrrolo[3,2-b]pyridin-2-yl)-ethyl]-amide}3′-methyl amide], with 0.07 µM.

As to `COc1ccccc1C#Cc1ccc(OC(C)C)c(C(=O)NC(CO)Cc2c[nH]c3cccnc23)c1` (centres unmarked) [Example 22, N-[1-Hydroxymethyl-2-(1H-pyrrolo[3,2-b]pyridin-3-yl)-ethyl]-2-isopropoxy-5-(2-methoxy-phenylethynyl)-benzamide], the IC50 is 0.2 µM. For `CNC(=O)c1cc(F)cc(-c2ccc(OC(C)C)c(C(=O)NC(CO)Cc3c[nH]c4ncccc34)c2)c1` (centres unmarked) [Example 1, 5′-Fluoro-4-isopropoxy-biphenyl-3,3′-dicarboxylic acid 3-{[2-hydroxy-1-(1H-pyrrolo[2,3-b]pyridin-3-ylmethyl)-ethyl]-amide}3′-methylamide], the IC50 was 1.5 µM.

In general, IC50 refers to the concentration that gives 50% inhibition.
